# From patent EP2161278B1, “Single-chain coiled coil scaffold” (Complix N.V., priority 2008, dated 2010)
# Entries after “also recorded” stand apart in the source; their conditions may differ. Peptide text beside a SMILES is read from it.
# Assay: Thermal denaturation of trimeric coiled coil peptides by CD thermal scan (signal at 222 nm versus temperature, curve fitting)
# Assay type: physicochemical
# Experimental: The said synthesized peptide was dissolved at a concentration of 292 microM in 20 mM phosphate buffer (PBS), 150 mM NaCl, pH 7.2. The CD spectra were measured between […], at 5 and 90 degrees Celsius (Figure 3). The spectrum at 5 degrees Celsius was indicative of a high alpha-helical secondary structure content, in agreement with the expectation that all heptad regions, but not all of the flanking residues, would assemble as alpha-helical coiled coils.
# To analyse whether the temperature-induced transition between helical and nonhelical states was reversible, a forward (up) and backward (down) thermal scan was performed on the same sample, by recording the CD signal at […] as a function of temperature at a scanning rate of about 1 degree Celsius per minute (Figure 4). It was observed that the up and down scans almost perfectly coincided, thereby confirming the quantitative unfolding and refolding of the peptides in the sample.
# It was further analyzed whether the thermal unfolding curve of Figure 4 conformed to the thermodynamic equations describing the equilibrium folding/unfolding reaction between three molecules free (monomeric) peptide and one entity of folded (trimeric) complex. This reaction is generally written as 3 peptide <=> peptide3 wherein "<=>" refers to a chemical equilibrium, "peptide" to a monomeric peptide in solution and "peptide3" to a trimeric entity in the folded (assembled, associated) state. This thermal unfolding curve was fitted to the theoretic equations: θ(T) = θM (T) + (θT(T)-θM(T))(1+root(F(-(1)/(2)+sqrt((1)/(4) + (F)/(27))), 3)+root(F(-(1)/(2)-sqrt((1)/(4) + (F)/(27))), 3)) [formula] wherein F = (exp(-(ΔHt)/(RT)(1-T/T1)-(ΔCp)/(RT)(T-Tt-Tln(T/Tt))))/(4) [formula] and T≡ the temperature, in degrees Kelvin, of the sample θ(T)≡ the CD-signal [theta]222 nm, in deg cm^2 dmol^-1, as a function of T θM(T)≡ the CD-signal for 100% free (monomeric) peptide as a function of T θT(T) ≡ the CD-signal for 100% associated (trimeric) peptide as a function of T Tt ≡ the transition temperature, where 50% of the total peptide concentration is associated ΔHt ≡ the enthalpy difference, in kJ per mole peptide, between mono- and trimeric states ΔCp ≡ the heat capacity difference, in J mol^-1 K^-1, between mono- and trimeric states R ≡ the ideal (universal) gas constant ≡ 8.31 J mol^-1 K^-1
# The global CD signal was somewhat lower than expected, which could be due to an instrumental deviation, an error in the concentration determination, a lower purity, or a lower than expected alpha-helical content. Nevertheless, the main goal of this experiment was to examine the effect of the glutamine-to-isoleucine mutant on the stability of the complex. […] The estimated transition temperature was around 97 degrees Celsius, although the latter was difficult to determine because of incompleteness of the transition.
# All ten peptides were analyzed by thermal CD scanning as in Examples 3 and 4. Fitting of the thermal denaturation curves, as described in Example 3, gave the corresponding transition temperatures shown in Figure 9. […]
SMILES,"estimated transition temperature (292 microM peptide in 20 mM phosphate buffer (PBS), 150 mM NaCl, pH 7.2, CD signal at 222 nM, difficult to determine because transition incomplete)",did not quantitatively unfold up to (CD thermal scan) [degrees Celsius],"thermal stability (resistance against thermal denaturation), in words (CD thermal scan)","thermal stability (resistance against thermal denaturation), in words (CD thermal scan, listed as all-isoleucine core peptide)","reversibility of thermal unfolding (down-scan recovery of the CD signal) (up and down thermal scan, about 1 degree Celsius per minute)"
CC[C@H](C)[C@H](NC(=O)[C@H](C)NC(=O)[C@H](C)NC(=O)[C@@H](NC(=O)[C@H](CCC(N)=O)NC(=O)[C@H](CCCCN)NC(=O)[C@H](CCC(N)=O)NC(=O)[C@@H](NC(=O)[C@H](CCC(=O)O)NC(=O)[C@H](CCC(=O)O)NC(=O)[C@@H](NC(=O)[C@H](CO)NC(=O)[C@H](CCSC)NC(C)=O)[C@@H](C)CC)[C@@H](C)CC)[C@@H](C)CC)C(=O)N[C@@H](CCC(N)=O)C(=O)N[C@@H](CCCCN)C(=O)N[C@@H](CCC(N)=O)C(=O)N[C@H](C(=O)N[C@@H](C)C(=O)N[C@@H](C)C(=O)N[C@H](C(=O)N[C@@H](CCC(N)=O)C(=O)N[C@@H](CCCCN)C(=O)N[C@@H](CCC(N)=O)C(=O)N[C@H](C(=O)N[C@@H](Cc1ccc(O)cc1)C(=O)N[C@@H](CCCNC(=N)N)C(=O)N[C@@H](CCSC)C(=O)N[C@H](C(=O)N1CCC[C@H]1C(N)=O)[C@@H](C)O)[C@@H](C)CC)[C@@H](C)CC)[C@@H](C)CC [Q2aI] (Ac-MSIEEIQKQIAAIQKQIAAIQKQIYRMTP-NH2),around 97 degrees Celsius,95,extremely thermostable; also recorded: thermally stable,very high thermal stability,full reversibility
CC[C@H](C)[C@H](NC(=O)[C@H](C)NC(=O)[C@H](C)NC(=O)[C@H](CCC(N)=O)NC(=O)[C@H](CCC(N)=O)NC(=O)[C@H](CCCCN)NC(=O)[C@H](CCC(N)=O)NC(=O)[C@@H](NC(=O)[C@H](CCC(=O)O)NC(=O)[C@H](CCC(=O)O)NC(=O)[C@@H](NC(=O)[C@H](CO)NC(=O)[C@H](CCSC)NC(C)=O)[C@@H](C)CC)[C@@H](C)CC)C(=O)N[C@@H](CCC(N)=O)C(=O)N[C@@H](CCCCN)C(=O)N[C@@H](CCC(N)=O)C(=O)N[C@H](C(=O)N[C@@H](C)C(=O)N[C@@H](C)C(=O)N[C@H](C(=O)N[C@@H](CCC(N)=O)C(=O)N[C@@H](CCCCN)C(=O)N[C@@H](CCC(N)=O)C(=O)N[C@H](C(=O)N[C@@H](Cc1ccc(O)cc1)C(=O)N[C@@H](CCCNC(=N)N)C(=O)N[C@@H](CCSC)C(=O)N[C@H](C(=O)N1CCC[C@H]1C(N)=O)[C@@H](C)O)[C@@H](C)CC)[C@@H](C)CC)[C@@H](C)CC [Q2a] (Ac-MSIEEIQKQQAAIQKQIAAIQKQIYRMTP-NH2),,,moderately stable,,
